The results in this text go back to US8759535B2, “Substituted fused imidazole derivatives, pharmaceutical compositions, and methods of use thereof” (High Point Pharmaceuticals, LLC, priority 2010, dated 2014).

This assay deals with HMOX1. The experiment in a line: HMOX1 Protein Assay (immunostaining of HO-1 in NHLF cells, GE InCell 1000). It counts as cell-based. As to conditions: Homo sapiens, fold change above DMSO treated cells, 16 h; for fold induction at 5 µM: 5 μM compound; for fold induction at 3 µM: 3 μM compound (asterisk). As for the experimental part:
Cell Culture. Normal Human Fibroblast (NHLF), were obtained from Lonza. Cultures of cells were maintained in Fibroblast Growth Medium (FGM-2) medium supplemented with 2% fetal bovine serum (FBS), Fibroblast Growth Factor (hFGF-B) 0.5 mL, Insulin 0.5 mL, gentamicin/amphotericin-B 0.5 mL at 37° C. in a humidified atmosphere of 5% CO2. Cells were grown to 80% confluence before treating.
HMOX1 Protein Assay. NHLF cells were grown to 80% confluency and harvested by washing once with HEPES and then trypsinized. Equal numbers (2×10^3 cells per well) of NHLF cells were plated in 384 well optilux tissue culture (BD) plates. Cells were incubated overnight in FGM-2 medium prior to exposure to compound. Cells were treated with either vehicle (DMSO) or compound (dissolved in vehicle) for 16 h. Cells were washed 2× with 1×PBS and fixed with 4% Paraformaldyhyde for 15 min. The fixed cells were then permeabalized with 0.1% Triton X-100 and blocked with 5% BSA in 1×PBS 0.05% Tween-20 for 15 min. HO-1 antibody (abcam) was used for immunostaining at 1:300 dilution in 1% BSA in 1×PBS for 1 hour. Cells were washed 2× with 1×PBS and secondary antibody goat anti-mouse Alexa 488 1:400 dilution (Invitrogen); Hoechst 1:2000 (Invitrogen) in 1% BSA in 1×PBS for 1 hour. Plate was washed 5× with 1×PBS and read at Hoechst Ex.360 […]; Alexa 488 Ex.480 Em. 535 using GE InCell 1000. Results analyzed using GE InCell Analyzer software. Heme oxygenase data represents the fold change above DMSO treated cells.
In general, the fold induction data are reported for 5 μM concentration (i.e., μ-moles of compound to total volume, where the solvent is about 99.2% media and 0.8% DMSO). In some instances, the reported data are for 3 μM concentration, which are indicated by an asterisk (*).

Structures can show the parent of a compound that is named as a salt.

Broadly, the fold induction is the signal under treatment as a multiple of the control signal. The compound `COC(=O)CNC(=O)c1ccc2c(c1)nc(Nc1nc3ccc(OC(F)(F)F)cc3s1)n2C` [Example 79, {[1-Methyl-2-(6-trifluoromethoxy-benzothiazol-2-ylamino)-1H-benzoimidazole-5-carbonyl]-amino}-acetic acid methyl ester] registered a fold induction at 5 µM of 17.6.

As for `CCOCCNC(=O)c1cc2nc(Nc3nc4ccc(OC(F)(F)F)cc4s3)n(C)c2cc1OC` [Example 65, 6-Methoxy-1-methyl-2-(6-trifluoromethoxy-benzothiazol-2-ylamino)-1H-benzoimidazole-5-carboxylic acid (2-ethoxy-ethyl)-amide], the fold induction at 5 µM came to 10.2.

In turn, `CN(C)C(=O)CNC(=O)c1cnc2c(c1)nc(Nc1nc3ccc(OC(F)(F)F)cc3s1)n2C` [Example 74, 3-Methyl-2-(6-trifluoromethoxy-benzothiazol-2-ylamino)-3H-imidazo[4,5-b]pyridine-6-carboxylic acid dimethylcarbamoylmethyl-amide] had a fold induction at 5 µM of 11.1.

Consider `CN(C)CC(=O)NCCNC(=O)c1ccc2c(c1)nc(Nc1nc3ccc(Cl)cc3s1)n2C` [Example 324, 2-(6-Chloro-benzothiazol-2-ylamino)-1-methyl-1H-benzoimidazole-5-carboxylic acid [2-(2-dimethylamino-acetylamino)-ethyl]-amide], for which the fold induction at 5 µM was 27.9.

`C[C@H](NC(=O)c1ccc2c(c1)nc(Nc1nc3ccc(Cl)cc3s1)n2C)C(=O)N(C)C` [Example 462, 2-(6-Chloro-benzothiazol-2-ylamino)-1-methyl-1H-benzoimidazole-5-carboxylic acid ((S)-1-dimethylcarbamoyl-ethyl)-amide] showed a fold induction at 3 µM of 20.

As to `COCCNC(=O)c1ccc2c(c1)nc(Nc1nc3cc(F)ccc3s1)n2C` [Example 123, 2-(5-Fluoro-benzothiazol-2-ylamino)-1-methyl-1H-benzimidazole-5-carboxylic acid (2-methoxy-ethyl)-amide], the fold induction at 5 µM is 12.7.

In the case of `COCCNC(=O)c1ccc2c(c1)nc(Nc1nc3ccc(OC(F)(F)F)cc3s1)n2CCOC` [Example 168, 1-(2-Methoxy-ethyl)-2-(6-trifluoromethoxy-benzothiazol-2-ylamino)-1H-benzoimidazole-5-carboxylic acid (2-methoxy-ethyl)-amide], the fold induction at 5 µM worked out at 21.9.

Turning to `Cn1c(Nc2nc3ccc(OC(F)(F)F)cc3s2)nc2cc(C(=O)NCC(=O)N3CCC(C(N)=O)CC3)ccc21` [Example 451, 1-Methyl-2-(6-trifluoromethoxy-benzothiazol-2-ylamino)-1H-benzoimidazole-5-carboxylic acid [2-(4-carbamoyl-piperidin-1-yl)-2-oxo-ethyl]-amide], the fold induction at 5 µM was 51.3.

For `Cn1c(Nc2nc3ccc(Cl)cc3s2)nc2cc(C(=O)NCC(=O)N3CCNCC3)ccc21` [Example 425, 2-(6-Chloro-benzothiazol-2-ylamino)-1-methyl-1H-benzoimidazole-5-carboxylic acid (2-oxo-2-piperazin-1-yl-ethyl)-amide hydrochloride], the fold induction at 5 µM came to 20.3.

Consider `CN(C)CC1CCCN(C(=O)CNC(=O)c2ccc3c(c2)nc(Nc2nc4ccc(Cl)cc4s2)n3C)C1` (centres unmarked) [Example 461, 2-(6-Chloro-benzothiazol-2-ylamino)-1-methyl-1H-benzoimidazole-5-carboxylic acid [2-(3-dimethylaminomethyl-piperidin-1-yl)-2-oxo-ethyl]-amide], for which the fold induction at 5 µM amounted to 27.1.

`Cn1c(Nc2nc3ccc(Cl)cc3s2)nc2cc(C(=O)NCCOCCC#N)ccc21` [Example 266, 2-(6-Chloro-benzothiazol-2-ylamino)-1-methyl-1H-benzoimidazole-5-carboxylic acid [2-(2-cyano-ethoxy)-ethyl]-amide] gave a fold induction at 5 µM of 57.

The compound `CCSCCNC(=O)c1ccc2c(c1)nc(Nc1nc3ccc(OC(F)(F)F)cc3s1)n2C` [Example 107, 1-Methyl-2-(6-trifluoromethoxy-benzothiazol-2-ylamino)-1H-benzoimidazole-5-carboxylic acid (2-ethylsulfanyl-ethyl)-amide] displayed a fold induction at 5 µM of 18.6.

As to `Cn1c(Nc2nc3ccc(OC(F)(F)F)cc3s2)nc2cc(C(=O)NCCCN)ccc21` [Example 344, 1-Methyl-2-(6-trifluoromethoxy-benzothiazol-2-ylamino)-1H-benzoimidazole-5-carboxylic acid (3-amino-propyl)-amide hydrochloride], the fold induction at 3 µM came out at 25.7.

For the compound `Cn1c(Nc2nc3ccc(S(C)(=O)=O)cc3s2)nc2cc(C(=O)NCCS(C)(=O)=O)ccc21` [Example 131, 2-(6-Methanesulfonyl-benzothiazol-2-ylamino)-1-methyl-1H-benzimidazole-5-carboxylic acid (2-methylsulfonyl-ethyl)-amide], the fold induction at 5 µM was 6.8.

With `CN[C@@H]1CCN(C(=O)CNC(=O)c2ccc3c(c2)nc(Nc2nc4ccc(OC(F)(F)F)cc4s2)n3C)C1` [Example 413, 1-Methyl-2-(6-trifluoromethoxy-benzothiazol-2-ylamino)-1H-benzoimidazole-5-carboxylic acid [2-((R)-3-methylamino-pyrrolidin-1-yl)-2-oxo-ethyl]-amide hydrochloride], the fold induction at 5 µM was 31.8.

With `Cn1c(Nc2nc3ccc(OC(F)(F)F)cc3s2)nc2cc(C(=O)NC3CCNCC3)ccc21` [Example 93, 1-Methyl-2-(6-trifluoromethoxy-benzothiazol-2-ylamino)-1H-benzoimidazole-5-carboxylic acid piperidin-4-ylamide hydrochloride], the fold induction at 5 µM amounted to 11.3.

On to `COC(=O)c1cc2nc(Nc3nc4ccc(OC(F)(F)F)cc4s3)n(C)c2cc1OC` [Example 61, 6-Methoxy-1-methyl-2-(6-trifluoromethoxy-benzothiazol-2-ylamino)-1H-benzoimidazole-5-carboxylic acid methyl ester], for which the fold induction at 5 µM was 12.1.

Turning to `Cn1c(Nc2nc3ccc(Cl)cc3s2)nc2cc(C(=O)N[C@H]3CCN(CCO)C3)ccc21` [Example 293, 2-(6-Chloro-benzothiazol-2-ylamino)-1-methyl-1H-benzoimidazole-5-carboxylic acid [(S)-1-(2-hydroxy-ethyl)-pyrrolidin-3-yl]amide], the fold induction at 5 µM came out at 29.4.

Turning to `CNC(=O)c1ccc2nc(Nc3nc4ccc(OC(F)(F)F)cc4s3)n(C)c2c1` [Example 38, 3-Methyl-2-(6-trifluoromethoxy-benzothiazol-2-ylamino)-3H-benzoimidazole-5-carboxylic acid methylamide], the fold induction at 5 µM worked out at 18.

With `Cn1c(Nc2nc3ccc(OC(F)(F)F)cc3s2)nc2cc(C(=O)NCCCCO)ccc21` [Example 219, 1-Methyl-2-(6-trifluoromethoxy-benzothiazol-2-ylamino)-1H-benzoimidazole-5-carboxylic acid (4-hydroxy-butyl)-amide], the fold induction at 5 µM is 40.

Regarding `CN(C)N(C)C(=O)c1ccc2c(c1)nc(Nc1nc3ccc(OC(F)(F)F)cc3s1)n2C` [Example 106, 1-Methyl-2-(6-trifluoromethoxy-benzothiazol-2-ylamino)-1H-benzimidazole-5-carboxylic acid trimethylhydrazide], the fold induction at 5 µM turned out to be 23.8.

Consider `Cn1c(Nc2nc3ccc(OC(F)(F)F)cc3s2)nc2cc(C(=O)NCc3ccc(O)cc3)ccc21` [Example 230, 1-Methyl-2-(6-trifluoromethoxy-benzothiazol-2-ylamino)-1H-benzoimidazole-5-carboxylic acid 4-hydroxy-benzylamide], for which the fold induction at 5 µM came out at 29.8.

`CCn1c(Nc2nc3ccc(C(F)(F)F)cc3s2)nc2cc(C(=O)NCC(=O)N(C)C)ccc21` [Example 187, 1-Ethyl-2-(6-trifluoromethyl-benzothiazol-2-ylamino)-1H-benzoimidazole-5-carboxylic acid dimethylcarbamoylmethyl-amide] came in with a fold induction at 5 µM of 18.4.

On to `Cn1c(Nc2nc3ccc(OC(F)(F)F)cc3s2)nc2cc(C(=O)NCCOCCN)ccc21` [Example 268, 1-Methyl-2-(6-trifluoromethoxy-benzothiazol-2-ylamino)-1H-benzoimidazole-5-carboxylic acid [2-(2-amino-ethoxy)-ethyl]-amide], for which the fold induction at 5 µM was determined as 28.4.

On to `Cn1c(Nc2nc3ccc(Cl)cc3s2)nc2cc(C(=O)NCC(=O)NC3CCOCC3)ccc21` [Example 385, 2-(6-Chloro-benzothiazol-2-ylamino)-1-methyl-1H-benzoimidazole-5-carboxylic acid [(tetrahydro-pyran-4-ylcarbamoyl)-methyl]-amide], for which the fold induction at 5 µM was found to be 24.5.

As to `Cn1c(Nc2nc3ccc(OC(F)(F)F)cc3s2)nc2cc(C(=O)NC3CCNC3)ccc21` (centres unmarked) [Example 289, 1-Methyl-2-(6-trifluoromethoxy-benzothiazol-2-ylamino)-1H-benzoimidazole-5-carboxylic acid pyrrolidin-3-ylamide hydrochloride], the fold induction at 5 µM came out at 44.6.
